From US8629318B2, “Transgenic animals for analyzing CYP3A4 cytochrome P450 gene regulation” (University of Sydney, priority 2000, dated 2014)
Entries after “also recorded” stand apart in the source; their conditions may differ.

Experiments:
[1] = system: −13CYP3A4/lacZ transgene; experiment: β-galactosidase activity in total liver lysates, ONPG assay, line 9/4; assay type: in vivo, mouse; conditions: 100 mg/kg i.p. daily for 4 days, FIG. 3A
Procedure: (§1) Administration of xenobiotics to mice. 8-10 week old male and female mice hemizygous for the −CYP3A4/lacZ and −13CYP3A4/lacZ transgenes were used to test the ability of a range of xenobiotics and hormones to activate expression of transgene-derived β-galactosidase. […] The dose used for all reagents to test for induction of the transgene was 100 mg/kg body weight. Dose response studies were carried out in the range of 1-100 mg/kg with male hemizygous transgenic mice.
(§2) Analysis of transgene and mouse Cyp3a gene expression. β-galactosidase activity was visualised in slices and frozen sections of liver and other tissues by staining with X-gal (5-bromo-4-chloro-3-indolyl-β-D-galactopyranoside). Tissues were fixed in 0.25% glutaraldehyde, 0.1 M phosphate buffer pH7.3, 5 mM EGTA, 2 mM MgCl2: washed in 0.1 M phosphate buffer pH7.3, 0.01% sodium deoxycholate, 0.025% NP40, 2 mM MgCl2 and stained by incubation at 37° C. in wash solution supplemented with 1 mg/ml X-gal, 5 mM potassium ferricyanide, and 5 mM potassium ferrocyanide. The level of β-galactosidase activity was determined in whole liver homogenates [100 mg fresh tissue/ml 0.25M Tris-HCl (pH 7.3)] using the O-nitrophenyl-β-D-galactopyranoside (ONPG) assay according to standard techniques. After appropriate dilution the homogenate was incubated with β-galactosidase assay reagent (0.1 M sodium phosphate buffer (pH7.3)/1 mM MgCl2/50 mmol β-mercaptoethanol/0.88 mg/ml ONPG) at 37° C., quenched by the addition of 1 M Na2CO3 and the absorbance at 420 nm determined. The units of β-galactosidase activity are given as A420/mg liver/minute.

[2] = system: −13CYP3A4/lacZ transgene
Procedure: as §1, §2

[3] = system: mouse Cyp3all gene; conditions: in vivo, ip, 100 mg/kg
Procedure: as §1
Filters were stripped and reprobed with an 18S rRNA oligonucleotide to normalise loading.

[4] = system: −13CYP3A4/lacZ transgene; experiment: Xenobiotic induction of transgene expression in line 15/10; assay type: in vivo, mouse; conditions: data not shown
Procedure: as §1
Analysis of transgene and mouse Cyp3a gene expression. β-galactosidase activity was visualised in slices and frozen sections of liver and other tissues by staining with X-gal (5-bromo-4-chloro-3-indolyl-β-D-galactopyranoside). […] The level of β-galactosidase activity was determined in whole liver homogenates [100 mg fresh tissue/ml 0.25M Tris-HCl (pH 7.3)] using the O-nitrophenyl-β-D-galactopyranoside (ONPG) assay according to standard techniques. After appropriate dilution the homogenate was incubated with β-galactosidase assay reagent (0.1 M sodium phosphate buffer (pH7.3)/1 mM MgCl2/50 mmol β-mercaptoethanol/0.88 mg/ml ONPG) at 37° C., quenched by the addition of 1 M Na2CO3 and the absorbance at 420 nm determined. […]

In the case of `CC(=O)[C@H]1CC[C@H]2[C@@H]3CC=C4C[C@@H](O)CC[C@]4(C)[C@H]3CC[C@]12C` [pregnenolone], the “relative degree of induction of transgene, β-galactosidase activity in liver lysates” value (shortened to “relative degree”) ([1]; 100 mg/kg) is reported as “very weak inducers; also recorded: the induction was weak compared with xenobiotics”.

In the case of `CC(=O)[C@H]1[C@H](C#N)C[C@H]2[C@@H]3CC=C4C[C@@H](O)CC[C@]4(C)[C@H]3CC[C@@]21C` [pregnenolone 16α-carbonitrile], the “hepatic transgene expression, X-gal staining of liver slices (cells containing β-galactosidase)” value ([2]; female mice line 9/4, 100 mg/kg i.p. daily for 4 days, compared with corn oil treated mice) is reported as “increased zone of blue staining cells”, the “hepatic Cyp3all mRNA, females versus males” value [3] is reported as “higher levels of Cyp3all mRNA were observed in females than males” and the “relative degree” value ([1]; 100 mg/kg) is reported as “most potent xenobiotic activators; also recorded: most potent inducers”.

With `C[C@@H]1C[C@H]2[C@@H]3CCC4=CC(=O)C=C[C@]4(C)[C@@]3(F)[C@@H](O)C[C@]2(C)[C@@]1(O)C(=O)COP(=O)(O)O` [dexamethasone, dexamethasone phosphate] the “induction profile of transgene expression” value [4] was “most potent activator”, the “thickness of zone of X-gal positive hepatocytes” value ([2]; line 9/4, 100 mg/kg, FIG. 4B) was “up to 10 cells” and the “thickness of zone of hepatocytes expressing the transgene around the central vein (X-gal)” value ([2]; line 9/4, low doses, FIG. 4B) was 1-2 cells.

`O=C1NC(=O)C(c2ccccc2)(c2ccccc2)N1` [phenyloin] was tested, and the “relative degree” value [1] was “intermediate inducers”.

`Clc1ccccc1C(c1ccccc1)(c1ccccc1)n1ccnc1` [clotrimazole] was tested, and the “relative degree” value [1] was “intermediate inducers”.
